{"source": "patent US6903121B1", "about": "“TREATMENT OF TUMORS WITH ACETYLENES DISUBSTITUTED WITH A PHENYL OR HETEROAROMATIC GROUP AND A SUBSTITUTED CHROMANYL, THIOCHROMANYL OR TETRAHYDROQUINOLINYL GROUP IN COMBINATION WITH OTHER ANTI-TUMOR AGENTS” (Allergan, Inc., priority 2000, dated 2005)", "key": {"carcinoma cell lines": {"test_system": "carcinoma cell lines", "settings": "in some of the cell lines; Fanjul et al. 1996; cited from earlier work"}, "[1]": {"test_system": "MCF-7 human breast cancer lines", "settings": "Toma et al. 1997; cited from earlier work"}, "SK-BR-3 cells": {"test_system": "SK-BR-3 cells", "assay": "Cell proliferation assay (BrdU incorporation) in SK-BR-3 breast cancer cells", "type": "cell-based, human", "method": "(§1) The SK-BR-3, T47D and HL-60 cell cultures in which the assay procedures were performed are also well known and are available from sources well known in the art. Specifically, as is known, T47D is an estrogen receptor positive (ER^+) human breast cancer cell line, and SK-BR-3 is an estrogen receptor negative (ER^−) human breast cancer cell line. HL-60 is a well known human myeloid leukemia cell line. The assay procedure for the breast cancer lines itself is well known in the art and involves determining incorporation of 5-bromo-2′-deoxyuridine (BrdU) into the cells. As is known, incorporation of less BrdU represents less cell proliferation (inhibition of cell proliferation), and this assay is accepted in the art as a measure of anti-proliferative or anti-tumor activity of the assayed agent or agents. The assay procedure for the HL-60 cell line is also well-known in the art. It involves measuring the concentration of formazan dye which is cleaved from 3-[4,5-dimethylthiazole-2-yl]-2,5-diphenyltetrazolium bromide by viable HL-60 cells.\n(§2) The estrogen receptor-positive (ER^+) cell line T-47D and the ER^− cell line SK-BR-3 were cultured in Dulbecco's modification of Eagle's medium (DMEM Gibco BRL, Gaithersburg, Md.) supplemented with 10% fetal bovine serum (HyClone, Logan, Utah), 2 mM L-glutamine and 1% antibiotics-antimycotics (Gibco BRL). Cell lines were obtained from the American Type Culture Collection (ATCC, Rockville, Md., HTB-133 and HTB-30 for T-47D and SK-BR-3, respectively). Cells were cultured at 37 °C in a humidified atmosphere containing 5% CO2.\n(§3) Proliferation of cancer cell lines was determined using a commercial cell proliferation kit (Roche Diagnostics), essentially following the instructions of the manufacturer. Cells were seeded into 96-well tissue culture plates (Corning Incorporated, Corning, N.Y.) at a concentration of 3000 cells/well. After 24 hours, cells were treated continuously with tazarotene (Formula 3) and/or interferons (IFNs) or solvent alone. The appropriate concentrations of tazarotene (Formula 3) used in this study were between 10^−11 M and 10^−6M; IFN concentrations were between 10 and 1000 Unit/ml. Culture media were changed every 72 hours. After 7 days, 10 μl of 5-bromo-2′-deoxyuridine (BrdU) was added to each well. Incubation with BrdU was stopped 24 hours later by adding 100 μl of anti-BrdU antibody to each well. The amount of BrdU incorporated into the DNA of proliferating cells was assessed by measuring absorbance at […]. Each experiment was performed in triplicate in three independent experiments.\n(§4) The growth inhibition observed for a combined treatment with tazarotene (Formula 3) and IFNs was analyzed for both synergistic and additive effects. The criteria for these effects have been discussed by three different groups (Aapro et al., Cancer Chemother. Pharmacol., 10: 161-166, 1983, Marth et al. J. Natl Cancer Inst., 77:1197-1202, 1986, Kurbacher et al., Cancer Letters, 103: 183-189, 1996). The mathematical multiplication of the two surviving fractions after the treatment of either with tazarotene (Formula 3) or with the respective interferon is the calculated value for simple additivity of both agents in combination. This calculated value is compared to the actual value observed to determine the nature of the combination effect. […] Synergism or inhibition was determined for each experiment individually, with the P value being 0.05 in comparison to the simple additivity hypothesis."}, "T-47D cells": {"test_system": "T-47D cells", "assay": "Cell proliferation assay (BrdU incorporation) in T-47D breast cancer cells", "type": "cell-based, human", "method": "as §1, §2, §3, §4"}, "HL-60 cells": {"test_system": "HL-60 cells", "assay": "Cell proliferation assay (MTT) in HL-60 leukemia cell line", "type": "cell-based, human", "method": "as §1\nThe human myeloid leukemia cell line HL-60 was cultured in Iscove's modified Dulbecco's medium (IMDM Gibco BRL, Gaithersburg, Md.) supplemented with 10% fetal bovine serum (HyClone, Logan, Utah), 2 mM L-glutamine and 1% antibiotics-antimycotics (Gibco BRL). HL-60 cells were obtained from the American Type Culture Collection (ATCC, Rockville, Md., CCL-240). Cells were cultured at 37° C. in a humidified atmosphere containing 5% CO2.\nProliferation of the HL-60 leukemia cell line was determined by a cell viability and non-radioactive commercial cell proliferation kit (MTT assay; Roche Diagnostics, Indianapolis, Ind.), essentially by following the instructions of the manufacturer. Cells were seeded into 96-well tissue culture plates (Corning Incorporated, Corning, N.Y.) at a concentration of 1000 cells/well. After 24 hours, the cells were treated continuously with tazarotene (Formula 3) and/or IFNs or solvent alone. […] The quantification of viable cells, capable of cleaving MTT to form a formazan dye, was assessed by measuring absorbance at 590 nm. […]\nas §4, with “The criteria for these effects have been discussed by three different groups (Aapro et al., Cancer Chemother. Pharmacol., 10: 161-166, 1983, Marth et al. J. Natl Cancer Inst., 77:1197-1202, 1986, Kurbacher et al., Cancer Letters, 103: 183-189, 1996).” left out"}, "[2]": {"test_system": "MCF-7 human carcinoma cell line", "settings": "Kurbacher et al. 1996; cited from earlier work"}, "[3]": {"test_system": "MDA-MB 231 human carcinoma cell line", "settings": "Kurbacher et al. 1996; cited from earlier work"}}, "note": "“Also recorded” adds a separate entry of the source.", "data": [{"compound": "COC(=O)c1ccc(/C(C)=C/c2ccc3c(c2)C(C)(C)CCC3(C)C)cc1", "note": "[SRI 11220]", "values": [{"measurement": "anti-proliferative activity in combination with interferon", "setting": "carcinoma cell lines", "value": "synergistic"}]}, {"compound": "CC1=C(/C=C/C(C)=C/C=C/C(C)=C/C(=O)O)C(C)(C)CCC1", "note": "[all trans retinoic acid]", "values": [{"measurement": "combination effect with other chemotherapeutic agents such as tamoxifen (TAM)", "setting": "[1]", "value": "synergistic effect"}, {"measurement": "combination effect with α interferon (α IFN)", "setting": "[1]", "value": "synergistic effects"}]}, {"compound": "CCOC(=O)c1ccc(C#Cc2ccc3c(c2)C(C)(C)CCS3)nc1", "note": "[tazarotene, ethyl 6-[2-(4,4-dimethylthiochroman-6-yl)ethynyl]nicotinate]", "values": [{"measurement": "anti-proliferative effect of combination with IFNα (combination effect vs theoretically additive curve)", "setting": "SK-BR-3 cells; IFNα constant 100 U/ml, tazarotene varied, FIG. 1", "value": "synergism; also recorded: synergistic effect"}, {"measurement": "anti-proliferative effect of combination with IFNβ (combination effect)", "setting": "SK-BR-3 cells; IFNβ constant 10 U/ml, tazarotene varied, FIG. 3", "value": "synergism; also recorded: significant synergistic effect"}, {"measurement": "anti-proliferative effect of combination with IFNγ (combination effect)", "setting": "SK-BR-3 cells; IFNγ constant 100 U/ml, tazarotene varied, FIG. 5", "value": "synergism; also recorded: significant synergistic effect"}, {"measurement": "anti-proliferative effect of combination with IFNα (combination effect)", "setting": "SK-BR-3 cells; tazarotene constant 10 nM, IFNα varied 0 to 1000 U/ml, FIG. 7", "value": "striking synergism"}, {"measurement": "anti-proliferative effect of combination with IFNβ (combination effect)", "setting": "SK-BR-3 cells; tazarotene constant 10 nM, IFNβ varied 0 to 1000 U/ml, FIG. 9", "value": "striking synergism"}, {"measurement": "anti-proliferative effect of combination with IFNγ (combination effect)", "setting": "SK-BR-3 cells; tazarotene constant 10 nM, IFNγ varied 0 to 1000 U/ml, FIG. 11", "value": "striking synergism"}, {"measurement": "anti-proliferative effect of combination with IFNα (combination effect)", "setting": "T-47D cells; IFNα constant 100 U/ml, tazarotene varied, FIG. 2", "value": "synergism, although not as striking as in the assays with SK-BR-3 cells"}, {"measurement": "anti-proliferative effect of combination with IFNβ (combination effect)", "setting": "T-47D cells; IFNβ constant 100 U/ml, tazarotene varied, FIG. 4", "value": "synergism; also recorded: synergism, although not as striking as in the assays with SK-BR-3 cells"}, {"measurement": "anti-proliferative effect of combination with IFNγ (combination effect)", "setting": "T-47D cells; IFNγ constant 100 U/ml, tazarotene varied, FIG. 6", "value": "synergism, although not as striking as in the assays with SK-BR-3 cells"}, {"measurement": "anti-proliferative effect of combination with IFNα (combination effect)", "setting": "T-47D cells; tazarotene constant 10 nM, IFNα varied 0 to 1000 U/ml, FIG. 8", "value": "weak synergism"}, {"measurement": "anti-proliferative effect of combination with IFNβ (combination effect)", "setting": "T-47D cells; tazarotene constant 10 nM, IFNβ varied 0 to 1000 U/ml, FIG. 10", "value": "significant synergism"}, {"measurement": "anti-proliferative effect of combination with IFNα (combination effect)", "setting": "HL-60 cells; IFNα constant 100 U/ml, tazarotene varied, FIG. 13", "value": "significant synergism"}, {"measurement": "anti-proliferative effect of combination with IFNβ (combination effect)", "setting": "HL-60 cells; IFNβ constant 100 U/ml, tazarotene varied, FIG. 14", "value": "significant synergism"}, {"measurement": "anti-proliferative effect of combination with IFNα (combination effect)", "setting": "HL-60 cells; tazarotene constant 50 nM, IFNα varied 0 to 1000 U/ml, FIG. 15", "value": "significant synergism"}, {"measurement": "anti-proliferative effect of combination with IFNβ (combination effect)", "setting": "HL-60 cells; tazarotene constant 50 nM, IFNβ varied 0 to 1000 U/ml, FIG. 16", "value": "significant synergism"}]}, {"compound": "O=C1O[C@H]([C@@H](O)CO)C(O)=C1O", "note": "[vitamin C]", "values": [{"measurement": "combination effect with certain chemotherapeutic anti-tumor agents", "setting": "[2]", "value": "synergistic action"}, {"measurement": "combination effect with certain chemotherapeutic anti-tumor agents", "setting": "[3]", "value": "synergistic action"}]}]}
